Drawing on DBAASP, this text covers MIC for seven compounds.

Among the test systems are Aeromonas hydrophila; Vibrio harveyi; Salmonella sp.; Escherichia coli; Yersinia enterocolitica; Escherichia coli UB1005; Escherichia coli 780; Staphylococcus aureus 75; Escherichia coli 804; Staphylococcus aureus; Fusarium graminearum.
Holding throughout (experiment): ≥ marks a high value that may be exact or a test limit, other limits are often not marked, values filed in µg/mL are converted to µM
The subject of experiment [1] is Salmonella enterica subsp. enterica serovar Enteritidis.
Experiment [2] relates to Escherichia coli ATCC 25922.
The test system of experiment [3] is Pseudomonas aeruginosa ATCC 27853.
In experiment [4] the test system is Staphylococcus aureus ATCC 29213.
In experiment [5] the test system is Staphylococcus aureus ATCC 43300.
The subject of experiment [6] is Burkholderia cepacia ATCC 25416.
Experiment [7] concerns Pseudomonas aeruginosa H547.
The test system of experiment [8] is Pseudomonas aeruginosa Z61.
For experiment [9], the system named is Salmonella enterica subsp. enterica serovar Typhimurium ATCC 14028s.
Experiment [10] concerns Pseudomonas aeruginosa K799.
The test system of experiment [11] is Pseudomonas aeruginosa H744.
Experiment [12] concerns Klebsiella pneumoniae ATCC 700603.
In experiment [13] the test system is Pseudomonas aeruginosa ATCC 9027.
The test system of experiment [14] is Acinetobacter baumannii 9931.
In experiment [15] the test system is Staphylococcus aureus 113.
Experiment [16] has as its system Acinetobacter baumannii 97830.
The test system of experiment [17] is Pseudomonas aeruginosa 73.
In experiment [18] the test system is Bacillus subtilis ATCC 23857.
Experiment [19] deals with Staphylococcus epidermidis ATCC 12228.
The test system of experiment [20] is Acinetobacter baumannii ATCC 19606.
Experiment [21] relates to Pseudomonas aeruginosa 50.
Experiment [22] concerns Bifidobacterium longum subsp. infantis.
Experiment [23] concerns Cryptococcus neoformans ATCC 32264.

≈ marks a conversion by molar mass, not a printed value. A value given as a limit tells only on which side of the number the result lay.

As usually defined, the MIC is the lowest concentration found to suppress growth.

As for `CC[C@H](C)[C@H](NC(=O)[C@H](C)NC(=O)[C@H](CCCN=C(N)N)NC(=O)[C@H](Cc1cnc[nH]1)NC(=O)[C@@H](NC(=O)[C@H](C)NC(=O)[C@H](CCCN=C(N)N)NC(=O)[C@@H](NC(=O)CNC(=O)[C@H](Cc1cnc[nH]1)NC(=O)[C@H](CO)NC(=O)[C@@H](NC(=O)[C@H](Cc1c[nH]c2ccccc12)NC(=O)CNC(=O)[C@@H](NC(=O)[C@@H](NC(=O)[C@H](Cc1cnc[nH]1)NC(=O)[C@H](Cc1cnc[nH]1)NC(=O)[C@@H](NC(=O)[C@@H](N)Cc1ccccc1)[C@@H](C)CC)[C@@H](C)CC)[C@@H](C)CC)[C@@H](C)CC)C(C)C)[C@@H](C)CC)C(=O)N[C@@H](Cc1cnc[nH]1)C(N)=O` [FIHHIIGWISHGVRAIHRAIH], the MIC in the experiment with Aeromonas hydrophila stood at 16 µM (≈ 39.5 µg/mL); in the experiment with Vibrio harveyi it was 8 µM (≈ 19.8 µg/mL).
On to `CC[C@H](C)[C@H](NC(=O)[C@H](CCCCN)NC(=O)[C@@H](NC(=O)[C@H](Cc1c[nH]c2ccccc12)NC(=O)[C@H](Cc1ccccc1)NC(=O)[C@H](CCC(N)=O)NC(=O)[C@H](CC(N)=O)NC(=O)[C@H](CCCN=C(N)N)NC(=O)[C@H](CCCN=C(N)N)NC(=O)[C@H](CCSC)NC(=O)[C@H](CCCCN)NC(=O)[C@H](Cc1c[nH]c2ccccc12)NC(=O)[C@H](CCCCN)NC(=O)[C@@H](N)CCCCN)[C@@H](C)CC)C(=O)N[C@@H](CCC(N)=O)C(=O)N[C@@H](CCCN=C(N)N)C(N)=O` [KKWKMRRNQFWIKIQR], for which the MIC is 25 µM (≈ 56.1 µg/mL) against Salmonella sp.; 25 µM (≈ 56.1 µg/mL) in [1]; greater than 50 µM in experiment [2]; greater than 50 µM in experiment [3]; 25 µM (≈ 56.1 µg/mL) against Escherichia coli; greater than 50 µM in experiment [4]. In addition, the MIC in the experiment on Yersinia enterocolitica was no less than 50 µM; in experiment [5] it was greater than 50 µM.
Turning to `CC[C@H](C)[C@H](NC(=O)CNC(=O)[C@@H](NC(=O)[C@H](CCCCN)NC(=O)[C@H](CCCCN)NC(=O)[C@H](Cc1ccccc1)NC(=O)[C@H](CCCCN)NC(=O)[C@H](Cc1c[nH]c2ccccc12)NC(=O)[C@@H](N)CCCCN)[C@@H](C)CC)C(=O)NCC(=O)N[C@@H](C)C(=O)N[C@H](C(=O)N[C@@H](CC(C)C)C(=O)N[C@@H](CCCCN)C(=O)N[C@H](C(=O)N[C@@H](CC(C)C)C(=O)N[C@H](C(=O)N[C@H](C(=O)NCC(=O)N[C@@H](CC(C)C)C(=O)N1CCC[C@H]1C(=O)N[C@@H](C)C(=O)N[C@@H](CC(C)C)C(=O)N[C@@H](CCCCN)C(=O)N[C@@H](CC(C)C)C(=O)N[C@H](C(=O)N[C@@H](CC(C)C)C(=O)N[C@@H](CCCCN)C(=O)O)[C@@H](C)O)[C@@H](C)O)[C@@H](C)O)C(C)C)C(C)C` [KWKFKKIGIGAVLKVLTTGLPALKLTLK], the MIC in [6] was determined as 20.9 µM (≈ 64 µg/mL); in experiment [7], 0.652 µM (≈ 2 µg/mL); against Escherichia coli UB1005 it was 0.652 µM (≈ 2 µg/mL); in [8] it was 1.63 µM (≈ 5 µg/mL); in [9], 1.3 µM (≈ 4 µg/mL); in experiment [10], 1.96 µM (≈ 6 µg/mL). In addition, the MIC in [11] was 0.326 µM (≈ 1 µg/mL).
As to `CC(C)C[C@H](NC(=O)[C@H](Cc1c[nH]c2ccccc12)NC(=O)[C@H](CCCN=C(N)N)NC(=O)[C@H](Cc1c[nH]c2ccccc12)NC(=O)[C@H](Cc1c[nH]c2ccccc12)NC(=O)[C@H](Cc1c[nH]c2ccccc12)NC(=O)[C@H](CCCN=C(N)N)NC(=O)[C@H](Cc1c[nH]c2ccccc12)NC(=O)[C@@H](N)CC(C)C)C(N)=O` [LWRWWWRWL], the MIC stood at 8 µM (≈ 11.9 µg/mL) in experiment [12]; 32 µM (≈ 47.6 µg/mL) in [13]; 16 µM (≈ 23.8 µg/mL) in the experiment with Escherichia coli 780; 4 µM (≈ 5.95 µg/mL) against Staphylococcus aureus 75; 16 µM (≈ 23.8 µg/mL) in [14]; 4 µM (≈ 5.95 µg/mL) in experiment [15]. The MIC against Escherichia coli 804 is no less than 32 µM; in experiment [16], 8 µM (≈ 11.9 µg/mL); in experiment [17], no less than 64 µM; in experiment [18], 4 µM (≈ 5.95 µg/mL); in experiment [19], 4 µM (≈ 5.95 µg/mL); in experiment [3], 128 µM (≈ 190 µg/mL). Moreover, the MIC in experiment [20] is 16 µM (≈ 23.8 µg/mL); in [4], 4 µM (≈ 5.95 µg/mL); in experiment [21], no less than 32 µM.
On to `CC(C)C[C@H](NC(=O)[C@H](CC(N)=O)NC(=O)[C@@H]1CCCN1C(=O)[C@@H](N)CCCN=C(N)N)C(=O)N[C@@H](Cc1cnc[nH]1)C(=O)N1CCC[C@H]1C(=O)N[C@@H](CO)C(=O)O` [RPNLHPS], for which the MIC was no less than 3.66 mM in experiment [22], 3660 µM (≈ 3000 µg/mL) against Escherichia coli and 3.66 mM (≈ 3000 µg/mL) in the experiment with Staphylococcus aureus.
With `NCCCC[C@H](NC(=O)[C@H](CCCCN)NC(=O)[C@H](CCC(N)=O)NC(=O)[C@@H](N)CCCN=C(N)N)C(N)=O` [RQKK], the MIC in experiment [23] is no less than 100 µM.
In turn, `CSCC[C@H](NC(=O)[C@H](Cc1cnc[nH]1)NC(=O)[C@H](CCCCN)NC(=O)CNC(=O)[C@H](CC(N)=O)NC(=O)[C@H](CCCN=C(N)N)NC(=O)[C@@H](NC(=O)[C@H](Cc1cnc[nH]1)NC(=O)[C@H](CS)NC(=O)[C@H](C)NC(=O)CNC(=O)[C@H](Cc1cnc[nH]1)NC(=O)[C@@H](NC(=O)[C@H](C)NC(=O)CNC(=O)[C@H](CCC(=O)O)NC(=O)[C@@H](N)Cc1c[nH]c2ccccc12)C(C)C)C(C)C)C(=O)N[C@@H](CS)C(=O)O` [WEGAVHGACHVRNGKHMC] showed an MIC in the experiment with Fusarium graminearum of 20 µM (≈ 39.8 µg/mL).
